Data on four compounds can be found in PubChem BioAssay AID1963429 (Molecular Pharmacology Branch, DTP, NCI, 2024).

In this test the test system is 126254-015-R-J1-PDC complex spheroid growth, % test/control. In words: Anticancer human tumor 126254-015-R-J1-PDC patient-derived soft tissue sarcoma cell line growth inhibition [Asc]. The conditions noted are these: for viability, T/C: stronger effect = lower value. The method, then:
Multicellular complex tumor spheroid response to apoptosis pathway targeting inhibitors Alrizomadlin, Pelcitoclax, and Dasminapant in combination with a variety of drugs and investigational agents in selected tumor cell lines
The MDM2 inhibitor alrizomadlin, the Bcl-2/Bcl-xL inhibitor pelcitoclax, and the IAPs inhibitor dasminapant were evaluated both individually and in combination with standard of care and investigational anticancer small molecules within a complex spheroid model of solid tumors. . Complex spheroids include a stromal component modeled by human endothelial cells (HUVEC) and fibroblasts modeled by human mesenchymal stem cells (MSCs). The concentration ranges selected for each drug and investigational agent were based upon clinically achievable concentrations if the clinical Cmax of the agent was known.
Compounds. The drugs and investigational agents: alrizomadlin (APG-115; NSC831270), pelcitoclax (APG-1252; NSC835773), dasminapant (APG-1387;NSC834197), TAK-243 (NSC785004), copanlisib (NSC809693), olaparib (NSC753686), talazoparib (NSC767125), cobimetinib (NSC 768068), eltanexor (KPT-8602, NSC 794443), abemaciclib (NSC 768073), sotorasib (NSC818433), adagrasib (NSC 831453), MRTX-1133 (NSC 836407), Iadademestat (ORY1001, NSC 806812), and RMC-4630 (NSC839698), were obtained from the NCI Developmental Therapeutics Program Chemical Repository. The FDA-approved anticancer drug set is available from the Developmental Therapeutics Program at https://dtp.cancer.gov/organization/dscb/obtaining/available plates.htm. […] The stock solutions were prepared in dimethyl sulfoxide (DMSO, Sigma-Aldrich, St. Louis, MO, cat. D2650) at 800-fold the tested concentration and stored at -70 degrees C prior to their use. All drugs and investigational agents were tested over a range starting from a high concentration at or near the clinical Cmax and decreasing in half-log increments. If the clinical Cmax for an agent had not been determined, the highest concentration tested was 10 microM.
The patient-derived cancer (PDC) cell lines include five colon adenocarcinomas: 186277-243-T-J2-PDC, 616215-338-R-J1-PDC, 439559-082-T-J2-PDC, 463943-066-T-J2-PDC, and 519858-162-T-J1-PDC; three pancreatic carcinomas: 323965-272-R-J2-PDC, 521955-158-R6-J3-PDC, and 521955-158-R2-J5-PDC; two uterine sarcomas: 327498-152-R-J2-PDC and 993429-296-R-J1-PDC; two rhabdomyosarcomas: 755483-174-R-J1-PDC and 772245-204-R-J1-PDC; two soft tissue sarcomas: 126254-015-R-J1-PDC and 494315-158-R-J1-PDC; two malignant fibrous histiocytomas: 317291-083-R-J1-PDC and 596521-263-R-J1-PDC; two breast carcinomas: 171881-019-R-J1-PDC and 885512-296-R-J2-PDC; and one ovarian carcinoma: 6556581-035-R-J-PDC were obtained from the NCI PDMR, (https://pdmr.cancer.gov). The established cell lines HSSY-2 synovial sarcoma (RRID:CVCL 8719), SYO-1 synovial sarcoma (RRID:CVCL_7146), MPNST malignant peripheral neural sheath tumor were obtained from the Sloan Kettering Institute. The following established cell lines were purchased from the American Type Culture Collection (ATCC, Manassas, VA), Sor the received from the NCI repository:, PANC-1 pancreatic carcinoma (CRL-1469, RRID:CVCL_0480), OVCAR-5 ovarian carcinoma (RRID:CVCL_1628), OVCAR-8 ovarian carcinoma (RRID:CVCL_1629), , MCF-7 breast carcinoma (CRL-12584, RRID:CVCL_0031), MDA-MB-231 breast carcinoma (CRL-12532, RRID:CVCL_0062), NCI-H1876 small cell lung carcinoma (CRL-5902, RRID:CVCL_1503), NCI-H510A small cell lung carcinoma (HTB-184, RRID:CVCL_1565), NCI-H1417 (CRL-5869, RRID:CVCL_1469), and NCI-H196 small cell lung carcinoma (CRL-5823, RRID:CVCL_1509). Dr. Peter Houghton (Greehey Children's Cancer Research Institute, University of Texas Health Science Center, San Antonio, TX) provided Rh-18 rhabdomyosarcoma (RRID:CVCL_1659). Pooled donor human umbilical vein endothelial cells (HUVEC, Lonza, cat. CC-2519) and human mesenchymal stem cells (hMSC, Lonza, cat. PT-2501) were purchased from Lonza (Walkersville, MD).
Cell Culture. […]

The mark [1] stands for this setting: curve of first compound, second compound 0.01 µM.
Where [2] appears, read: curve of first compound, second compound 0.0316 µM.
The mark [3] stands for this setting: curve of first compound, second compound 0.1 µM.
[4] abbreviates: curve of first compound, second compound 0.316 µM.
Where [5] appears, read: curve of first compound, second compound 1 µM.
The mark [6] stands for this setting: second compound 0.01 µM, first compound 0.0316 µM.
Where [7] appears, read: second compound 0.01 µM, first compound 0.1 µM.
Where [8] appears, read: second compound 0.0316 µM, first compound 0.0316 µM.
Setting [9] is: second compound 0.0316 µM, first compound 0.1 µM.
Where [10] appears, read: second compound 0.1 µM, first compound 0.0316 µM.
The mark [11] stands for this setting: second compound 0.1 µM, first compound 0.1 µM.
[12] abbreviates: second compound 0.316 µM, first compound 0.0316 µM.
Setting [13] is: second compound 0.316 µM, first compound 0.1 µM.
[14] abbreviates: second compound 1 µM, first compound 0.0316 µM.
Where [15] appears, read: second compound 1 µM, first compound 0.1 µM.

“And” between values parts separate entries of the source, which are not always exact repeats. Identical values can stand only once.
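Also: spheroids exposed to compound for seven days.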
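For viability, T/C in this document: 100% = DMSO vehicle control wells.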

Take `COc1c(OCCCN2CCOCC2)ccc2c3n(c(=NC(=O)c4cnc(N)nc4)nc12)CCN3`: the viability, T/C is, setting by setting: (compound 0.00316 µM) 98.8% and 93% and 88.2%; (compound 0.01 µM) 87.4% and 90.6% and 95.3%; (compound 0.0316 µM) 60.5% and 65.2% and 66.9%; (compound 0.1 µM) 37.3% and 29.9% and 45.1%; (compound 0.316 µM) 16.1% and 17.7% and 24.1%; (compound 1 µM) 9.83% and 12.4% and 16.3%. Further, where the note is “curve of compound”, the IC50 was 53.6 nM and 52.5 nM and 76 nM.
For the compound `C=CC(=O)N1CCN(c2nc(=O)n(-c3c(C)ccnc3C(C)C)c3nc(-c4c(O)cccc4F)c(F)cc23)C(C)C1` (centres undefined) + CNC(C)C(=O)NC1CN(S(=O)(=O)c2cccc(S(=O)(=O)N3CCC4CCC(C(=O)NC(c5ccccc5)c5ccccc5)N4C(=O)C(NC(=O)C(C)NC)C3)c2)CCC2CCC(C(=O)NC(c3ccccc3)c3ccccc3)N2C1=O, the IC50 is, setting by setting: under setting [1], > 10000 nM; under setting [2], > 10000 nM; under setting [3], > 10000 nM; under setting [4], > 10000 nM; under setting [5], > 10000 nM. For the same compound, the viability, T/C is 94.4% under setting [6]; 99.5% under setting [7]; 94.5% (second compound 0.01 µM, first compound 0.316 µM); 110% (second compound 0.01 µM, first compound 1 µM); 101% (second compound 0.01 µM, first compound 3.16 µM); 82.3% (second compound 0.01 µM, first compound 10 µM). Moreover, the viability, T/C runs as follows: under setting [8], 85.1%; under setting [9], 84.8%; (second compound 0.0316 µM, first compound 0.316 µM) 86.7%; (second compound 0.0316 µM, first compound 1 µM) 84.2%; (second compound 0.0316 µM, first compound 3.16 µM) 87.1%; (second compound 0.0316 µM, first compound 10 µM) 75.2%. Moreover, the viability, T/C is, setting by setting: under setting [10], 70.7%; under setting [11], 78%; (second compound 0.1 µM, first compound 0.316 µM) 81.5%; (second compound 0.1 µM, first compound 1 µM) 75.7%; (second compound 0.1 µM, first compound 3.16 µM) 82.7%; (second compound 0.1 µM, first compound 10 µM) 67.3%. Moreover, the viability, T/C runs as follows: under setting [12], 69.2%; under setting [13], 77.2%; (second compound 0.316 µM, first compound 0.316 µM) 71.5%; (second compound 0.316 µM, first compound 1 µM) 70.9%; (second compound 0.316 µM, first compound 3.16 µM) 73.9%; (second compound 0.316 µM, first compound 10 µM) 67.7%. The viability, T/C under setting [14] was 62.8%; the viability, T/C under setting [15] was 72.4%; the viability, T/C (second compound 1 µM, first compound 0.316 µM) is 67.5%; the viability, T/C (second compound 1 µM, first compound 1 µM) is 72%; the viability, T/C (second compound 1 µM, first compound 3.16 µM) was 70.3%; the viability, T/C (second compound 1 µM, first compound 10 µM) is 65.5%.
As to `Cn1ncnc1[C@H]1c2n[nH]c(=O)c3cc(F)cc(c23)N[C@@H]1c1ccc(F)cc1`, the viability, T/C by setting is: (compound 0.000316 µM) 93.2% and 98% and 104%; (compound 0.001 µM) 95.6% and 106% and 103%; (compound 0.00316 µM) 90.9% and 91% and 86.1%; (compound 0.01 µM) 80.1% and 88.7% and 90.3%; (compound 0.0316 µM) 91.6% and 90% and 79.6%; (compound 0.1 µM) 80.9% and 89.7% and 70.5%. The concentration for half-maximal inhibition (IC50) (curve of compound) was > 100 nM.
As to `Cn1ncnc1[C@H]1c2n[nH]c(=O)c3cc(F)cc(c23)N[C@@H]1c1ccc(F)cc1` + CNC(C)C(=O)NC1CN(S(=O)(=O)c2cccc(S(=O)(=O)N3CCC4CCC(C(=O)NC(c5ccccc5)c5ccccc5)N4C(=O)C(NC(=O)C(C)NC)C3)c2)CCC2CCC(C(=O)NC(c3ccccc3)c3ccccc3)N2C1=O, the half-inhibitory concentration (IC50) is > 100 nM under setting [1]; > 100 nM under setting [2]; 56.2 nM under setting [3]; 13.1 nM under setting [4]; 10 nM under setting [5]. Also, the viability, T/C is 82.1% (second compound 0.01 µM, first compound 0.000316 µM); 82.3% (second compound 0.01 µM, first compound 0.001 µM); 78.2% (second compound 0.01 µM, first compound 0.00316 µM); 79.6% (second compound 0.01 µM, first compound 0.01 µM); 77.3% under setting [6]; 63.1% under setting [7]. The viability, T/C is 71% (second compound 0.0316 µM, first compound 0.000316 µM); 77.3% (second compound 0.0316 µM, first compound 0.001 µM); 71% (second compound 0.0316 µM, first compound 0.00316 µM); 61.4% (second compound 0.0316 µM, first compound 0.01 µM); 56.1% under setting [8]; 58.1% under setting [9]. Besides, the viability, T/C reads like this: (second compound 0.1 µM, first compound 0.000316 µM) 67.3%; (second compound 0.1 µM, first compound 0.001 µM) 67.4%; (second compound 0.1 µM, first compound 0.00316 µM) 60.5%; (second compound 0.1 µM, first compound 0.01 µM) 55.8%; under setting [10], 58.4%; under setting [11], 44.7%. The viability, T/C (second compound 0.316 µM, first compound 0.000316 µM) is 56%; the viability, T/C (second compound 0.316 µM, first compound 0.001 µM) is 70.9%; the viability, T/C (second compound 0.316 µM, first compound 0.00316 µM) is 59.2%; the viability, T/C (second compound 0.316 µM, first compound 0.01 µM) was 51.8%; the viability, T/C under setting [12] was 44.4%; the viability, T/C under setting [13] is 41%. Also, the viability, T/C (second compound 1 µM, first compound 0.000316 µM) is 53.2%; the viability, T/C (second compound 1 µM, first compound 0.001 µM) is 63.7%; the viability, T/C (second compound 1 µM, first compound 0.00316 µM) was 56.2%; the viability, T/C (second compound 1 µM, first compound 0.01 µM) was 42.4%; the viability, T/C under setting [14] was 46.8%; the viability, T/C under setting [15] was 44.1%.

For orientation: viability, T/C means the result in the treated group divided by that in the control group, in per cent. As a reminder, the IC50 is the concentration that gives 50% inhibition.
